Counter-ions that a name gives are not always drawn.
The compounds below were run against T1, recombinant full-length USP7 (Homo sapiens, UniProt Q93009) (assay: USP7-mediated ubiquitin-rhodamine cleavage assay). Conditions: recombinant full-length USP7 62 pM; ubiquitin-rhodamine 100 nM; 30-minute incubation with compound, 1 hour reaction at room temperature; read-out: Potency: USP7 IC50.
T1 construct: A 25 μl reaction volume containing recombinant full-length USP7 (62 pM)
Type: biochemical
Method in brief: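 Enzyme 62 pM; HEPES pH 7.3/150 mM NaCl/1 mM TCEP/125 μg/ml BSA; 1% DMSO; 30 min cpd preinc RT; Ub-rhodamine 100 nM, 1 h RT, dark; acetic acid stop; fluorescence; IC50 4-param fit.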

T1 sequence (Q93009 whole entry): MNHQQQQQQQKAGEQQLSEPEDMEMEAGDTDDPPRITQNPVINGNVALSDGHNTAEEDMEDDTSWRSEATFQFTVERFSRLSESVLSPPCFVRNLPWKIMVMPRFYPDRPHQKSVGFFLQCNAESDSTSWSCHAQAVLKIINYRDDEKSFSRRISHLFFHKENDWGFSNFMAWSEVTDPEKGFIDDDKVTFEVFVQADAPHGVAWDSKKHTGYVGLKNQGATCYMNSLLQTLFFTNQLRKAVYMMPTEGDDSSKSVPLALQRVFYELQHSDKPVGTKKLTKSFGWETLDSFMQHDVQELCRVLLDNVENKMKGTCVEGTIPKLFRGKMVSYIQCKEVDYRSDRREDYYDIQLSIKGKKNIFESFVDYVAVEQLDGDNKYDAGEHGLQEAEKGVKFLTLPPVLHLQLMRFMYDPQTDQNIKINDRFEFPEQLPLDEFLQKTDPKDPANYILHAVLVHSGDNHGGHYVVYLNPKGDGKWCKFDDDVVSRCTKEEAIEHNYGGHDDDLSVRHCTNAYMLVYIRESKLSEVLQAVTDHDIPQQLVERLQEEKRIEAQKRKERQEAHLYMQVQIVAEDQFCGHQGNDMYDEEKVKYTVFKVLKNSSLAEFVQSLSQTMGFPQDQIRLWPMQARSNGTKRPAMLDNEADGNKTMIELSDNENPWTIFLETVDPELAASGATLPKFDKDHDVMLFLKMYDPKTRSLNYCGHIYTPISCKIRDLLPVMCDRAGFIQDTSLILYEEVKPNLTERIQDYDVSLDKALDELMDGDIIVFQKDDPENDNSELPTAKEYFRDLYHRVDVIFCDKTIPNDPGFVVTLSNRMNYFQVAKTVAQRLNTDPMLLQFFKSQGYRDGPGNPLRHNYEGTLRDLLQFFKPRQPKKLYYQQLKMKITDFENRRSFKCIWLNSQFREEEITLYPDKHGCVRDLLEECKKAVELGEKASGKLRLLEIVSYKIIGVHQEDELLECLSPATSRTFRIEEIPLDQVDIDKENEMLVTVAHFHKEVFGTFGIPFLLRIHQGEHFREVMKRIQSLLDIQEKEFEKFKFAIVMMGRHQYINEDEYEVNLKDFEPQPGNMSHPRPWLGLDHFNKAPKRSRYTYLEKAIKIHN

`Cc1cc(Cl)cc(-c2ccnc3cc(CO)sc23)c1O[C@@H]1CCC[C@@H]1N` [Example 74, (7-(2-(((1R,2S)-2-Aminocyclopentyl)oxy)-5-chloro-3-methylphenyl)thieno[3,2-b]pyridin-2-yl)methanol] and `Cc1cc(Cl)cc(-c2ccnc3cc(CO)sc23)c1OC[C@H]1CCCN1` [Example 58, (R)-(7-(5-Chloro-3-methyl-2-(pyrrolidin-2-ylmethoxy)phenyl)thieno[3,2-b]pyridin-2-yl)methanol] fall in the same range of IC50: 10000 to 30000 nM for the first, 10000 to 30000 nM for the second.

`Cc1cc(C#N)cc(-c2ccnc3cc(CN4C(=O)CCS4(=O)=O)sc23)c1O[C@@H]1CNC[C@@H]1F` [Example 114, 3-(2-((1,1-Dioxido-3-oxoisothiazolidin-2-yl)methyl)thieno[3,2-b]pyridin-7-yl)-4-(((3R,4S)-4-fluoropyrrolidin-3-yl)oxy)-5-methylbenzonitrile] and `Cc1cc(Cl)cc(-c2ccnc3cc(CN4C(=O)CCC4=O)sc23)c1OC1CCNCC1CO` (centres unmarked) [Example 234, 1-((7-(5-Chloro-2-((3-(hydroxymethyl)piperidin-4-yl)oxy)-3-methylphenyl)thieno[3,2-b]pyridin-2-yl)methyl)pyrrolidine-2,5-dione] cannot be ordered by IC50: under 1000 nM for the first, under 1000 nM for the second.

First: Cc1cc(Cl)cc(-c2ccnc3cc(CO)sc23)c1OCC1CCCNC1 (centres unmarked) [Example 189, (7-(5-Chloro-3-methyl-2-(piperidin-3-ylmethoxy)phenyl)thieno[3,2-b]pyridin-2-yl)methanol]
Second: CCOC(=O)NN(Cc1cc2nccc(-c3cc(Cl)cc(C)c3O[C@@H]3CCNC[C@@H]3C)c2s1)C(=O)OCC [Example 402, ethyl N-[[7-[5-chloro-3-methyl-2-[[(3S,4R)-3-methyl-4-piperidyl]oxy]phenyl]thieno[3,2-b]pyridin-2-yl]methyl]-N-(ethoxycarbonylamino)carbamate]
The IC50 of the first is higher: 10000 to 30000 nM for the first, under 1000 nM for the second.

`Cc1cc(Cl)cc(-c2ccnc3cc(CN4C(=O)CCC4=O)sc23)c1O[C@@H]1CN(CC(C)(C)C)C[C@@H]1F` [Example 336, 1-[[7-[5-chloro-2-[(3R,4S)-1-(2,2-dimethylpropyl)-4-fluoro-pyrrolidin-3-yl]oxy-3-methyl-phenyl]thieno[3,2-b]pyridin-2-yl]methyl]pyrrolidine-2,5-dione] and `Cc1cc(Cl)cc(-c2ncnc3cc(CN4C(=O)CCC4=O)sc23)c1O[C@H]1CC[C@H](C)NC1` [Example 338, 1-[[4-[5-chloro-3-methyl-2-[[(3S,6S)-6-methyl-3-piperidyl]oxy]phenyl]thieno[3,2-d]pyrimidin-6-yl]methyl]pyrrolidine-2,5-dione dihydrochloride] cannot be ordered by IC50: under 1000 nM for the first, under 1000 nM for the second.

`Cc1cc(Cl)cc(-c2ncnc3cc(CN4C(=O)C5CCCC5C4=O)sc23)c1O[C@@H]1CNC[C@@H]1F` (stereo partly drawn) [Example 158, 2-((4-(5-Chloro-2-(((3R,4S)-4-fluoropyrrolidin-3-yl)oxy)-3-methylphenyl)thieno[3,2-d]pyrimidin-6-yl)methyl)tetrahydrocyclopenta[c]pyrrole-1,3(2H,3aH)-dione] and `Cc1cc(Cl)cc(-c2ccnc3cc(Cn4c(=O)ccn(CC(F)(F)F)c4=O)sc23)c1OC1CNCC1(C)C` (centres unmarked) [Example 346, 3-[[7-[5-chloro-2-(4,4-dimethylpyrrolidin-3-yl)oxy-3-methyl-phenyl]thieno[3,2-b]pyridin-2-yl]methyl]-1-(2,2,2-trifluoroethyl)pyrimidine-2,4-dione] cannot be ordered by IC50: under 1000 nM for the first, under 1000 nM for the second.

Same assay, conditions: recombinant full-length USP7 62 pM; ubiquitin-rhodamine 100 nM; 30-minute incubation, 1 hour reaction at room temperature; read-out: Potency (USP7 IC50)

`Cc1cc(Cl)cc(-c2ccnc3cc(Cn4c(=O)ccn(CC(F)(F)F)c4=O)sc23)c1OC(C)C` [Example 702, 3-[[7-(5-chloro-2-isopropoxy-3-methyl-phenyl)thieno[3,2-b]pyridin-2-yl]methyl]-1-(2,2,2-trifluoroethyl)pyrimidine-2,4-dione] was tested, and the IC50 was 1000 to 10000 nM.

Same assay, conditions: recombinant full-length USP7 62 pM; ubiquitin-rhodamine 100 nM; 30-minute pre-incubation, 1 hour reaction at room temperature; read-out: Potency (USP7 IC50)

`Cc1cc(Cl)cc(-c2ccnc3cc(Cn4c(=O)ccn(C)c4=O)sc23)c1O[C@@H]1CNCC[C@@H]1F` [Example 570, 3-[[7-[5-chloro-2-[[(3R,4S)-4-fluoro-3-piperidyl]oxy]-3-methyl-phenyl]thieno[3,2-b]pyridin-2-yl]methyl]-1-methyl-pyrimidine-2,4-dione] and `Cc1cc(Cl)cc(-c2ccnc3cc(Cn4c(=O)ccn(C)c4=O)sc23)c1O[C@@H]1CCN[C@H]1C(=O)O` [Example 602, (2R,3R)-3-[4-chloro-2-methyl-6-[2-[(3-methyl-2,6-dioxo-pyrimidin-1-yl)methyl]thieno[3,2-b]pyridin-7-yl]phenoxy]pyrrolidine-2-carboxylic acid] cannot be ordered by IC50: under 1000 nM for the first, under 1000 nM for the second.

`Cc1cc(Cl)cc(-c2ccnc3cc(Cn4c(=O)ccn(CC(F)(F)F)c4=O)sc23)c1OCCN1CCCC1` [Example 661, 3-[[7-[5-chloro-3-methyl-2-(2-pyrrolidin-1-ylethoxy)phenyl]thieno[3,2-b]pyridin-2-yl]methyl]-1-(2,2,2-trifluoroethyl)pyrimidine-2,4-dione; 2,2,2-trifluoroacetic acid] and `Cc1cc(Cl)cc(-c2ccnc3cc(Cn4c(=O)ccn(CC(F)(F)F)c4=O)sc23)c1O[C@H]1CCCNC1` [Example 484, 3-[[7-[5-chloro-3-methyl-2-[[(3S)-3-piperidyl]oxy]phenyl]thieno[3,2-b]pyridin-2-yl]methyl]-1-(2,2,2-trifluoroethyl)pyrimidine-2,4-dione] cannot be ordered by IC50: under 1000 nM for the first, under 1000 nM for the second.

`COCCN1C[C@H](C)[C@H](Oc2c(C)cc(Cl)cc2-c2ccnc3cc(Cn4c(=O)ccn(CC(F)(F)F)c4=O)sc23)C1` [Example 645, 3-[[7-[5-chloro-2-[(3S,4S)-1-(2-methoxyethyl)-4-methyl-pyrrolidin-3-yl]oxy-3-methyl-phenyl]thieno[3,2-b]pyridin-2-yl]methyl]-1-(2,2,2-trifluoroethyl)pyrimidine-2,4-dione] and `CO[C@H]1CNC[C@H]1Oc1c(C)cc(Cl)cc1-c1ccnc2cc(Cn3c(=O)ccn(CC(F)(F)F)c3=O)sc12` [Example 655, 3-[[7-[5-chloro-2-[(3R,4S)-4-methoxypyrrolidin-3-yl]oxy-3-methyl-phenyl]thieno[3,2-b]pyridin-2-yl]methyl]-1-(2,2,2-trifluoroethyl)pyrimidine-2,4-dione] cannot be ordered by IC50: under 1000 nM for the first, under 1000 nM for the second.

`Cc1cc(Cl)cc(-c2ccnc3cc(Cn4c(=O)ccn(CC(F)(F)F)c4=O)sc23)c1OC1CC2CNC1C2` (centres unmarked) [Example 535, 3-[[7-[2-(3-azabicyclo[2.2.1]heptan-5-yloxy)-5-chloro-3-methyl-phenyl]thieno[3,2-b]pyridin-2-yl]methyl]-1-(2,2,2-trifluoroethyl)pyrimidine-2,4-dione] and `Cc1cc(Cl)cc(-c2ccnc3cc(Cn4c(=O)ccn(CC(F)(F)F)c4=O)sc23)c1O[C@@H]1CN(C2CC(C(F)(F)F)C2)C[C@@H]1C` (stereo partly drawn) [Example 644, 3-[[7-[5-chloro-3-methyl-2-[(3S,4S)-4-methyl-1-[3-(trifluoromethyl)cyclobutyl]pyrrolidin-3-yl]oxy-phenyl]thieno[3,2-b]pyridin-2-yl]methyl]-1-(2,2,2-trifluoroethyl)pyrimidine-2,4-dione] cannot be ordered by IC50: under 1000 nM for the first, under 1000 nM for the second.

Compared with `Cc1c(F)c(Cl)cc(-c2ccnc3cc(Cn4c(=O)ccn(C)c4=O)sc23)c1O[C@H]1CCCNC1` [Example 435, 3-[[7-[5-chloro-4-fluoro-3-methyl-2-[[(3S)-3-piperidyl]oxy]phenyl]thieno[3,2-b]pyridin-2-yl]methyl]-1-methyl-pyrimidine-2,4-dione dihydrochloride], `Cc1cc(Cl)cc(-c2ccnc3cc(Cn4c(=O)ccn(C)c4=O)sc23)c1O[C@H]1CC[C@H](N)C1` [Example 522, 3-[[7-[2-[(1S,3S)-3-aminocylcopentoxy]-5-chloro-3-methyl-phenyl]thieno[3,2-b]pyridin-2-yl]methyl]-1-methyl-pyrimidine-2,4-dione; 2,2,2-trifluoroacetic acid] is lower in IC50: 1000 to 10000 nM for the first, under 1000 nM for the second.

`Cc1cc(Cl)cc(-c2ccnc3cc(Cn4c(=O)c(F)cn(CC(F)(F)F)c4=O)sc23)c1O[C@H]1CCCNC1` [Example 555, 3-[[7-[5-chloro-3-methyl-2-[[(3S)-3-piperidyl]oxy]phenyl]thieno[3,2-b]pyridin-2-yl]methyl]-5-fluoro-1-(2,2,2-trifluoroethyl)pyrimidine-2,4-dione] and `CC[C@H]1C[C@@H](Oc2c(C)cc(Cl)cc2-c2ccnc3cc(Cn4c(=O)ccn(C)c4=O)sc23)CCN1` [Example 610, 3-[[7-[5-chloro-2-[[(2S,4S)-2-ethyl-4-piperidyl]oxy]-3-methyl-phenyl]thieno[3,2-b]pyridin-2-yl]methyl]-1-methylpyrimidine-2,4-dione] cannot be ordered by IC50: under 1000 nM for the first, under 1000 nM for the second.

`Cc1cc(Cl)cc(-c2ccnc3cc(CN4C(=O)CCC4=O)sc23)c1OC1CC(N)C1` (centres unmarked) [Example 413, 1-[[7-[2-(3-aminocyclobutoxy)-5-chloro-3-methyl-phenyl]thieno[3,2-b]pyridin-2-yl]methyl]pyrrolidine-2,5-dione dihydrochloride] and `Cc1cc(Cl)cc(-c2ccnc3cc(Cn4c(=O)ccn(C)c4=O)sc23)c1OC1CCCN(CCO)C1` (centres unmarked) [Example 506, 3-[[7-[5-chloro-2-[[1-(2-hydroxyethyl)-3-piperidyl]oxy]-3-methyl-phenyl]thieno[3,2-b]pyridin-2-yl]methyl]-1-methyl-pyrimidine-2,4-dione] cannot be ordered by IC50: under 1000 nM for the first, under 1000 nM for the second.

With `Cc1cc(Cl)cc(-c2ccnc3cc(Cn4c(=O)ccn(C)c4=O)sc23)c1O[C@H]1CCN(CCO)C[C@@H]1F` [Example 483, 3-[[7-[5-chloro-2-[[(3S,4S)-3-fluoro-1-(2-hydroxyethyl)-4-piperidyl]oxy]-3-methyl-phenyl]thieno[3,2-b]pyridin-2-yl]methyl]-1-methyl-pyrimidine-2,4-dione; 2,2,2-trifluoroacetic acid] the IC50 was under 1000 nM.
